The values that follow come from publication PMC7334220, “Diamond Blackfan anemia is mediated by hyperactive Nemo-like kinase” (Nature Communications, 2020).

Series [1] has as its system ribosome-competent cord blood CD34+ HSPCs (shLuc). Nature of the series: In vitro differentiation of cord blood CD34+ HSPCs transduced with control shRNA (luciferase). In kind it is cell-based, human. Here is the method:
Lin-Kit^+ fetal liver cells were obtained from mouse embryos expressing tet-on shRNA against RPS19, at day E14.5-15.5. Cells were plated at 2000 cell per well in 96-well plates in the presence or absence of doxycycline. Relative amounts of live cells were quantified by luciferase-based Cell titer-Glo® assay. b TGFβR1 inhibitors were assessed for their ability to increase cell expansion in RPS19-insuffiency. As a control, vehicle alone (no doxycycline) is represented at the far left while all other samples were treated with doxycycline to induce RPS19-insufficiency. c Kit^+ erythroid progenitors were grown in the absence of doxycycline and in the presence of 10 µM of indicated compound. In addition, cells were treated with 5 ng/ml of TGFβ1 for 5 days before being subjected to Cell titer-Glo® assay. d Differentiating cord blood CD34^+ progenitors were transduced with shRNA against luciferase or RPS19 and treated with inhibitors at working concentrations for TGFβ inhibition every three days. […] Cells were counted and CD235^+ erythroid (i and iii) and CD11b^+ myeloid cell (ii and iv) percentages were determined by flow cytometry. The number of erythroid or myeloid cells is expressed as a percentage of the number of that lineage with no cytokine or drug treatment. […]
Fig. 8 NLK inhibition increases expansion of erythroid progenitors from human and murine models of DBA. a Human cord blood CD34^+ progenitors were transduced with lentivirus co-expressing GFP with shRNA against luciferase (shLuc), RPS19 (shRPS19), or RPL11 (shRPL11). […] Cells were counted and assessed for cell surface expression of CD235. b Lin-Kit^+ hematopoietic progenitors were obtained from three mouse embryos expressing tetracycline-inducible shRNA against RPS19 at day E14.5 or three untreated mice, and thee mature RPL11^+/+ or three mature RPL11^+/lox mice treated with tamoxifen for eight weeks. […] Values were expressed as a percentage relative to untreated controls. c, d Intracellular phosphorylation of NLK at Thr298 was determined by capillary electrophoresis using the Peggy Sue™ Automated Western blotting platform. […]

The next series relates to DBA patient HSPCs. Nature of the series: Erythroid differentiation (CD235+) of CD34+ HSPCs from DBA patient bone marrow. The settings on record: 5 µM SD208; three DBA patients. In kind it is cell-based, human. Here is the method:
Cells were counted and assessed for cell surface expression of CD235. b Lin-Kit^+ hematopoietic progenitors were obtained from three mouse embryos expressing tetracycline-inducible shRNA against RPS19 at day E14.5 or three untreated mice, and thee mature RPL11^+/+ or three mature RPL11^+/lox mice treated with tamoxifen for eight weeks. […] Values were expressed as a percentage relative to untreated controls. c, d Intracellular phosphorylation of NLK at Thr298 was determined by capillary electrophoresis using the Peggy Sue™ Automated Western blotting platform. After lysis, 4 µg of protein from the CD235^+ population was probed against pThr298-NLK and normalized to GAPDH. […] After counting the total cell population, the ratio of CD235^+ erythroblasts was determined by flow cytometry and number of CD235^+ erythroblasts calculated. This was expressed as a percentage of the average number of erythroid cells present in untreated healthy controls. f NLK phosphorylation was assessed by capillary electrophoresis as above. Bars represent means ± SD with individual data points overlaid. […] Statistics: two-tailed Student’s t test, significant *p < 0.05. Also see Supplementary Fig. 8. Source data are provided as a Source Data file. […]

For series [2] the following is noted: authors' statement in rebuttal, no data or reference; cited from earlier work.

Turning to `Fc1ccc(Cl)cc1-c1nc(Nc2ccncc2)c2nccnc2n1` [SD208], the activity at 5 µM in series [1] (Homo sapiens, 360 h, read-out: erythroid expansion of HSPCs transduced with control shRNA, % of control) was roughly 105%. Further, the “restoration of erythroid and myeloid expansion of TGFβ-treated cells” value in series [1] (ribosome-competent cells, 5 ng/ml TGFβ1, 5 µM compound, 15 days, Fig. 1e) is on record as “restored”. The “mean increase of CD235+ erythroblast differentiation with SD208” value with DBA patient HSPCs turned out to be 2.11 fold. Also, the solubility result in series [2] was “poor”.
